For one test, the target named is T1, NTCP M290S (NTCP→ASBT) (Homo sapiens, UniProt Q14973, M290S).
T1 construct: stably transfected with the full open reading frames of human NTCP, ASBT, SOAT, OATP1B1, OATP1B3, OATP2B1, and murine Asbt (mAsbt); expressed in transfected cells; host or cells: HEK293, stably transfected
T1 sequence (Q14973 1-349 M290S): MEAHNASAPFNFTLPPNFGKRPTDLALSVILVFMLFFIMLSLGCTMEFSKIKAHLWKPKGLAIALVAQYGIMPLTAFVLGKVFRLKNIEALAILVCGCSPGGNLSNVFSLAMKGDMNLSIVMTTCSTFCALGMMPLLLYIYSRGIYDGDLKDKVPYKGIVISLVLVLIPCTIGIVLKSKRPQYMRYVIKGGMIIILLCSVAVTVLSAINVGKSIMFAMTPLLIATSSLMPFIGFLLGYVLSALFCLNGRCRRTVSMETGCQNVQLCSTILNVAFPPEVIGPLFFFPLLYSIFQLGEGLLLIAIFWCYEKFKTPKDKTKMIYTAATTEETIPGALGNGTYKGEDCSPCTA
The experiment in a line: [3H]TC transport and inhibition assay, NTCP→ASBT mutant in HEK293 cells. In kind it is cell-based. The following applies: 1 μM [3H]TC, 10 min. The method, then:
Amplification was performed on a peqSTAR XS PEQLAB PCR cycler (Peqlab) with Pfu DNA polymerase (M774A; Promega) in 18 cycles under the following conditions: initial denaturation for 2 min at 95°C, denaturation for 30 s at 95°C, annealing for 1 min at 55°C, extension for 8 min and 30 s at 72°C, final elongation for 10 min at 72°C and final hold at 4°C. After amplification, the products were digested with DpnI (ER1701; Thermo Fisher Scientific) for 1 h at 37°C and transformed into TOP10 chemically competent E. coli (Thermo Fisher Scientific). Plasmids were isolated using a GeneJET Plasmid Miniprep Kit (Thermo Fisher Scientific) according to the manufacturer's protocol, and the generated point mutations were verified by DNA sequencing (Seqlab Microsynth).
(§1) Cells were seeded onto poly-L-lysine-coated 96-well plates, induced with 1 μg/ml tetracycline, and grown to confluence over 72 h at 37°C. Then, cells were washed with tempered (37°C) phosphate-buffered saline (PBS, containing 137.0 mM NaCl, 2.7 mM KCl, 1.5 mM KH2PO4, and 7.3 mM Na2HPO4, at pH 7.4) and preincubated with 80 μl sodium transport buffer (STB, containing 142.9 mM NaCl, 4.7 mM KCl, 1.2 mM MgSO4, 1.2 mM KH2PO4, 1.8 mM CaCl2, and 20.0 mM HEPES, at pH 7.4) for 5 min at 37°C. For inhibition studies, the medium was replaced by 80 μl STB containing the respective inhibitor or solvent alone and cells were further incubated for 5 min at 37°C. Transport experiments were started by adding 20 μl of a 5-fold concentrated substrate solution (solved in STB). For transport experiments under sodium-free conditions the same buffer composition was used as for STB, but sodium chloride was substituted with equimolar concentrations of choline chloride as previously reported ([20], [24]). Transport experiments were stopped by washing twice with ice-cold PBS and the plates were kept cool on ice until adding the lysis buffer [1% sodium dodecyl sulfate (SDS) and 1 N NaOH]. Then, the cell-associated radioactivity of the respective tritium-labeled substrate or ligand was quantified by liquid scintillation counting using MicroScint-20 scintillation cocktail (Revvity) in a Packard Microplate Scintillation Counter TopCount NXT (Packard Instrument Company). For IC50 transport inhibition measurements, the mean uptake values measured in non-carrier-expressing HEK293 control cells were defined as 0% uptake control and were subtracted from all other values. Values from cells without inhibitor and solvent alone were set to 100%. Finally, all net transport data were expressed as uptake or binding as % of control. All transport or inhibition graphs were generated with GraphPad Prism 6 (GraphPad). Determination of half maximal inhibitory concentrations (IC50) was done by nonlinear regression analysis using the equation log (inhibitor) versus response—variable slope settings. All data points of the IC50 curves represent means ± SD of quadruplicate determinations. For Km measurements, BS uptake in the absence of sodium was regarded as carrier-independent unspecific uptake and was subtracted from the transport rates in the presence of sodium to obtain carrier-specific uptake rates (indicated as dashed lines). From the specific uptake rates, Michaelis Menten Km values were calculated by non-linear regression analysis.

The target of the next test is T2, murine Asbt (mAsbt) (Mus musculus, UniProt P70172).
T2 construct: stably transfected with the full open reading frames of human NTCP, ASBT, SOAT, OATP1B1, OATP1B3, OATP2B1, and murine Asbt (mAsbt); expressed in transfected cells; host or cells: HEK293 (Flp-In), stably transfected, tetracycline-induced
T2 sequence (P70172 1-348): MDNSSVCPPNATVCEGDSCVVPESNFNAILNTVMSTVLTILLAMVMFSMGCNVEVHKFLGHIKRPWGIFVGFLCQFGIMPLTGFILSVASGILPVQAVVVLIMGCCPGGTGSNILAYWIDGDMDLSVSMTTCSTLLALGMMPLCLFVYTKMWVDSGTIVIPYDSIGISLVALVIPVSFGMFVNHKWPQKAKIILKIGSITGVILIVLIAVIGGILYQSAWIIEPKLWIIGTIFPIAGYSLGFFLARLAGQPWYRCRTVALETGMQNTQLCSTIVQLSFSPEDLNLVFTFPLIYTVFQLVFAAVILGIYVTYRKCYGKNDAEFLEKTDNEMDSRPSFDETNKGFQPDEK
The experiment in a line: [3H]TC transport and inhibition assay in mAsbt-HEK293 cells. The settings on record: for Inhibition curve/AUC of mAsbt compared to ASBT: 1 μM [3H]TC, 10 min, AUC combined from two experiments. It counts as cell-based.
Excerpt: Human embryonic kidney HEK293 cells, stably transfected with the full open reading frames of human NTCP, ASBT, SOAT, OATP1B1, OATP1B3, OATP2B1, and murine Asbt (mAsbt) were used as reported ([18], [20], [21], [22], [23]). The NTCP, ASBT, and mAsbt constructs were C-terminally tagged with the FLAG epitope, and the SOAT construct was C-terminally tagged with green fluorescent protein. Non-transfected Flp-In HEK293 cells (Thermo Fisher Scientific) served as the control. All cell lines were maintained at 37°C, 5% CO2 and 95% humidity in DMEM/F-12 medium (Thermo Fisher Scientific) supplemented with 10% fetal calf serum (Sigma-Aldrich), 4 mM L-glutamine (PAA) and penicillin/streptomycin (PAA). Expression of the respective carrier protein was induced by tetracycline treatment at 1 μg/ml (Carl Roth GmbH + Co. KG).
as §1, with “All transport or inhibition graphs were generated with GraphPad Prism 6 (GraphPad). Determination of half maximal inhibitory concentrations (IC50) was done by nonlinear regression analysis using the equation log (inhibitor) versus response—variable slope settings. All data points of the IC50 curves represent means ± SD of quadruplicate determinations. For Km measurements, BS uptake in the absence of sodium was regarded as carrier-independent unspecific uptake and was subtracted from the transport rates in the presence of sodium to obtain carrier-specific uptake rates (indicated as dashed lines).” left out

Consider `CCCCC1(CCCC)CS(=O)(=O)c2ccc(N(C)C)cc2[C@@H](c2ccc(OCCCC[N+]34CCN(CC3)CC4)cc2)[C@H]1O` [SC-435], for which the “Inhibition curves and AUC of NTCP→ASBT mutant compared to wild-type NTCP” value on NTCP M290S (NTCP→ASBT) was “still inactive”.

Consider `CCCCC1(CCCC)CN(c2ccccc2)c2cc(SC)c(OCC(=O)N[C@@H](C(=O)NCC(=O)O)c3ccccc3)cc2S(=O)(=O)C1` [elobixibat], for which the “Inhibition curves and AUC of NTCP→ASBT mutant compared to wild-type NTCP” value at NTCP M290S (NTCP→ASBT) is “did not significantly change”.

On to `CCCC[C@]1(CC)CS(=O)(=O)c2cc(CNC(CC(=O)O)CC(=O)O)c(OC)cc2[C@@H](c2ccccc2)N1` [linerixibat], for which, on murine Asbt (mAsbt), the “Inhibition curve/AUC of mAsbt compared to ASBT” value was “lower AUC values were determined for mAsbt compared to ASBT but without reaching the level of significance”. For the same molecule, the “Transport inhibition at highest substrate concentration” value on murine Asbt (mAsbt) (500 μM [3H]TC) is on record as “full transport inhibition”. Also, the “IC50 values at increasing substrate concentrations (in words)” value against murine Asbt (mAsbt) ([3H]TC 0.3-500 μM) is on record as “remained quite stable”. The “Inhibition curves and AUC of NTCP→ASBT mutant compared to wild-type NTCP” value at NTCP M290S (NTCP→ASBT) is “still inactive”.

Turning to `CCCCC1(CCCC)CS(=O)(=O)c2ccc(N(C)C)cc2[C@@H](c2ccc(OCc3ccc(C[N+]45CCN(CC4)CC5)cc3)cc2)[C@H]1O` [maralixibat], the “Inhibition curves and AUC of NTCP→ASBT mutant compared to wild-type NTCP” value on NTCP M290S (NTCP→ASBT) is “did not significantly change”.

As to `CCCCC1(CCCC)CN(c2ccccc2)c2cc(SC)c(OCC(=O)N[C@@H](C(=O)N[C@@H](CC)C(=O)O)c3ccc(O)cc3)cc2S(=O)(=O)N1` [odevixibat], the “Inhibition curve/AUC of mAsbt compared to ASBT” value at murine Asbt (mAsbt) is on record as “much more potent inhibitor of the human ASBT protein compared to mAsbt”. Further, the “Inhibition curves and AUC of NTCP→ASBT mutant compared to wild-type NTCP” value at NTCP M290S (NTCP→ASBT) is reported as “did not significantly change”.

The values are drawn from PMC12596218 (Journal of Lipid Research, 2025).
